The values below come from ChEMBL document CHEMBL5465560, “Selectivity Literature for EUbOPEN Chemogenomic Library” (2024).

The target in experiment [1] is Casein kinase II subunit alpha (Homo sapiens, UniProt P68400). To be noted: at 10 µM.
Experiment [2] has as its target T1, Ephrin type-B receptor 4 (Homo sapiens) (UniProt P54760).
T1 sequence (whole entry): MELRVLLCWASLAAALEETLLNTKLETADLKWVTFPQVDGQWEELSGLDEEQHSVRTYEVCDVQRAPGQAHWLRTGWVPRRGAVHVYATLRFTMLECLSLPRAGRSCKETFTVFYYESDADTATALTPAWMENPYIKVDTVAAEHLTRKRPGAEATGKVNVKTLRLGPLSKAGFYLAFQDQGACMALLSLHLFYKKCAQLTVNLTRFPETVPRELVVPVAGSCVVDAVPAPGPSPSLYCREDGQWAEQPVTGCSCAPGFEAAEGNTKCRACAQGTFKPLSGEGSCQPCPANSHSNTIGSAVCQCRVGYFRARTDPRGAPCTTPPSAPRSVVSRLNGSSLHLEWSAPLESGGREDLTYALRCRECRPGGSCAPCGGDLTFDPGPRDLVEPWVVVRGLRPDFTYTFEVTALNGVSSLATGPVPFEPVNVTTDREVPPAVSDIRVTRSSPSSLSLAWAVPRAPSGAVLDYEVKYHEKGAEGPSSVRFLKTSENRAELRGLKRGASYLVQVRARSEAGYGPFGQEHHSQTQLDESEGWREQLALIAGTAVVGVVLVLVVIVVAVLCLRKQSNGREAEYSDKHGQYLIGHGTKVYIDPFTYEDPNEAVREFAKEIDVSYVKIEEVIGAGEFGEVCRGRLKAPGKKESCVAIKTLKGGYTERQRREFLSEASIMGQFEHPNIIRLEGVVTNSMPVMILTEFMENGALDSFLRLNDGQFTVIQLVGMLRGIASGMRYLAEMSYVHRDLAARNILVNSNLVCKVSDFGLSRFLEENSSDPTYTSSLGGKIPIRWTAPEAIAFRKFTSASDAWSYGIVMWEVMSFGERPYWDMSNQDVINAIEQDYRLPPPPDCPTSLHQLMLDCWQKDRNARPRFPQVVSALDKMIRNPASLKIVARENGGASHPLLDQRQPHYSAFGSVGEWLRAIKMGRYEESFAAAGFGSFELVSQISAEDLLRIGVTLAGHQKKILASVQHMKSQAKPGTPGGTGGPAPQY
As to conditions: at 10 µM.

Experiment [3] deals with T2, Serine/threonine-protein kinase RIO1 (Homo sapiens) (UniProt Q9BRS2).
T2 sequence (whole entry): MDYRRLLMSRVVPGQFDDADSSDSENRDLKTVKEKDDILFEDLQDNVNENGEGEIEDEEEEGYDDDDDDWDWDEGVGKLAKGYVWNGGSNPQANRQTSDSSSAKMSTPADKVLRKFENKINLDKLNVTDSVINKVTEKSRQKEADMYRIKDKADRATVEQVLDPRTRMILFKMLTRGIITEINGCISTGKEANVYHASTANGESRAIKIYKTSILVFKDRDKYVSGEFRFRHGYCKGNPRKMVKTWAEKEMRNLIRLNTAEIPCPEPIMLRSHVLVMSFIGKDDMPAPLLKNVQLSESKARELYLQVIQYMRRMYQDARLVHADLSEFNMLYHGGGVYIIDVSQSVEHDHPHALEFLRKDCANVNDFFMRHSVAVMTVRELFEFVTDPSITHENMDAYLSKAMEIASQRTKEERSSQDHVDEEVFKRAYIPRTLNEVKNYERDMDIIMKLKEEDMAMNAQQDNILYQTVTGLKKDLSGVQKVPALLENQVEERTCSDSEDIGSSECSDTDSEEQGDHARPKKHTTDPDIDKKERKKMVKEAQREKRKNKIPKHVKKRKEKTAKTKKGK
To be noted: at 10 µM.

Experiment [4] has as its target T3, Serine/threonine-protein kinase MAK (Homo sapiens) (UniProt P20794).
T3 sequence (whole entry): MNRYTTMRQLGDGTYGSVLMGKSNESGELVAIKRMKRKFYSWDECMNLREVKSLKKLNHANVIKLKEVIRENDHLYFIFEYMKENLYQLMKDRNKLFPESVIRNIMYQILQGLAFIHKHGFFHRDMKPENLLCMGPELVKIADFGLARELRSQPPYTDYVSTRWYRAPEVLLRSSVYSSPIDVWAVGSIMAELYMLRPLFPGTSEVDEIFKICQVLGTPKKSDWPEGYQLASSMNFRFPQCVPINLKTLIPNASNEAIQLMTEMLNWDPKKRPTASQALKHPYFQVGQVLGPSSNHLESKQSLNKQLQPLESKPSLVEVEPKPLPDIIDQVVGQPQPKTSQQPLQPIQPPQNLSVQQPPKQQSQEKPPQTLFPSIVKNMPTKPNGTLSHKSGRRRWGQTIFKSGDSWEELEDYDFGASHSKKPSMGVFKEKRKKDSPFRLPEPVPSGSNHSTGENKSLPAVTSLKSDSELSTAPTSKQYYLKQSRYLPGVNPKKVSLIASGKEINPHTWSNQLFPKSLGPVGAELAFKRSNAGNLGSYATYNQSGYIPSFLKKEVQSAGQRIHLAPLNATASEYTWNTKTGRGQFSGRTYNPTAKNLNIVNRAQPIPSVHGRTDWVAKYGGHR
Kind of experiment: Selectivity interaction (KinomeScan (DiscoverX)) EUB0000045b MAK.

In experiment [5] the target is Casein kinase I isoform epsilon (Homo sapiens, UniProt P49674). Kind of experiment: Selectivity interaction (Ambit KINOMEscan and KiNATiv profiling in Jurkat cells) EUB0000090b CSNK1E. Format: cell-based. As to conditions: at 1 µM.
Chain of Casein kinase I isoform epsilon (P49674 whole entry, looked up, the tested form may be a part, canonical isoform): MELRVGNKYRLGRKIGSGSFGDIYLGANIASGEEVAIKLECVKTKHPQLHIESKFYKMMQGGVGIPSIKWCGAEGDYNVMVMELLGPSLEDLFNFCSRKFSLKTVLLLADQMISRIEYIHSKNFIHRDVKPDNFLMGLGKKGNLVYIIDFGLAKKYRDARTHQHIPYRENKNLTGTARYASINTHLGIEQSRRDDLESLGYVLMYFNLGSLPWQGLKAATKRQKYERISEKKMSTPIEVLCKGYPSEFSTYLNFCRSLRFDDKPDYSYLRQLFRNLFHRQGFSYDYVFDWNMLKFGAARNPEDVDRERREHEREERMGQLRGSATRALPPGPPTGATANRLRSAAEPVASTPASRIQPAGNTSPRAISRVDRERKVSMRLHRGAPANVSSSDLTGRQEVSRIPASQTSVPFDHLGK
The nature of experiment [6]: Selectivity interaction (PWWP, WD40, and Tudor domain panel (DSLS measurements, literature)) EUB0000270b WDR20.

Chain of Casein kinase II subunit alpha (P68400 whole entry, looked up): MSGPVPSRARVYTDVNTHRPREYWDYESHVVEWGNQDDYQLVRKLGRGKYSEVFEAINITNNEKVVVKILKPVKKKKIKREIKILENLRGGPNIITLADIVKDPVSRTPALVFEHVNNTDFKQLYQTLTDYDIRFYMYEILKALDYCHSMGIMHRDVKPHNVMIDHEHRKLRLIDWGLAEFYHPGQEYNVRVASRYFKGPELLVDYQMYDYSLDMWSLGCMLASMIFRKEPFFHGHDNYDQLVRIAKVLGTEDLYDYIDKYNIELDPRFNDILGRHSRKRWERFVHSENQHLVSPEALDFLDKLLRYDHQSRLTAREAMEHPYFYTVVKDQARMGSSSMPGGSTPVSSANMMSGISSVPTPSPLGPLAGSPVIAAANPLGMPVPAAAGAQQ

In experiment [1], `COCC(=O)NC/C=C/c1ccc2ncnc(Nc3ccc(Oc4ccc(C)nc4)c(C)c3)c2c1` [CP-724714] returned a % of control of 87%.

For `CCN(CC)CCCCNc1ncc2cc(-c3cc(OC)cc(OC)c3)c(NC(=O)NC(C)(C)C)nc2n1`, in experiment [2], the % of control is 100%.

The compound `Cc1cc([C@@H](C)Nc2ccccc2C(=O)O)c2nc(N3CCOCC3)cc(=O)n2c1` [AZD-6482] showed a % of control in experiment [3] of 100%.

In the case of `C=CC(=O)Nc1cc(-n2c(=O)ccc3cnc4ccc(-c5ccc(NS(C)(=O)=O)cc5)cc4c32)ccc1C`, the results for the % of control in experiment [4] (at 1 µM) and in experiment [4] (at 10 µM) were 70% and 100%, respectively.

Take `CN(C)C/C=C/C(=O)Nc1ccc(C(=O)N2CCCC(Nc3ncc(Cl)c(-c4c[nH]c5ccccc45)n3)C2)cc1` (configuration not stated): the % of control in experiment [5] amounted to 80%.

In the case of `Cc1cc(CN)cc(C)c1-c1ncn(C)c1-c1cncn1C`, in experiment [6], the dTagg stood at 0 K.
